Measured values taken from patent US7078400B2, “20-HETE synthase inhibitor” (Taisho Pharmaceutical Co., Ltd., priority 1999, dated 2006).

Experiments:
[1] = test system: 20-HETE synthase originated from rat kidney microsome; test: Inhibitory effect of 20-HETE synthase originated from rat kidney microsome; type: biochemical; details: for Inhibition rate (1 μM): 20-HETE production without compound set to 100%
Experimental: Experimental Example [Inhibitory effect of 20-HETE synthase originated from rat kidney microsome]
Regarding the compounds listed in Table 1, their inhibitory activity to production of 20-HETE was examined.
The subject compound for this examination was added to a buffer comprising 50 mM of 3-morpholinopropane sulfonic acid (pH7.4), 5 mM of magnesium chloride and 1 mM of ethylenediaminetetraacetic acid (EDTA) disodium salt.
After that, the rat kidney microsome (microsome fraction prepared from the kidney of a spontaneous hypertension rat (male, 6 weeks of age)) as an enzyme, [5,6,8,9,11,12,14,15] tritium-arachidonic acid (supplied by Amasham) as a substrate, and NADPH (supplied by Sigma) as a coenzyme were added and reacted for 1.5 hours at 37° C.
After the reaction, formic acid was added to stop the reaction, and then acetonitrile (final concentration of 50%) was added and left for 1.5 hours at room temperature.
The activity of 20-HETE synthase was measured by using a high performance liquid chromatograph having a detector for radioactive substances (supplied by Gilson), and equipped with a C18 reversed phase column (Biocyl C18, supplied by Bio-rad).

[2] = 1 μM of the subject compound added, rat kidney microsome
[3] = concentration at which production of 20-HETE was inhibited to 50%, rat kidney microsome
[4] = 1 μM of subject compound, rat kidney microsome
[5] = concentration at which 20-HETE production was inhibited to 50%, rat kidney microsome
[6] = concentration at which production of 20-HETE was inhibited to 50%

Compound: CCC(C)c1ccc(N/C=N/O)cc1 (stereo not drawn) [Comp. 4]
- melting point: 101 to 102.5 °C

Compound: O/N=C/Nc1ccc(Oc2ccccc2)cc1 [Comp. 131]
- Inhibition rate (1 μM) [1, 2]: 89.2
- IC50 [1, 3]: 26 nM
- melting point: 144 to 145.5 °C

Compound: CN(C)CCSc1ccc(N/C=N/O)cc1 [Comp. 445]
- Inhibition rate (1 μM) ([1]; 1 μM of the subject compound): 95.1
- melting point: 112 °C

Compound: O/N=C/Nc1ccc(OCc2ccccc2)cc1 [Comp. 343]
- Inhibition rate (1 μM) [1, 4]: 84.5
- IC50 [1, 5]: 3.3 nM
- melting point: 166.5 to 167 °C

Compound: Cc1cc(Cl)ccc1N/C=N/O [Comp. 38]
- Inhibition rate (1 μM) [1, 2]: 89.8
- IC50 [1, 3]: 79.8 nM
- melting point: 151 to 152.5 °C

Compound: CCCCCCCOc1ccc(N/C=N/O)cc1 [Comp. 321]
- Inhibition rate (1 μM) [1, 4]: 99.9
- IC50 [1, 5]: 3.7 nM
- melting point: 121 to 122.5 °C

Compound: C=CCCOc1ccc(N/C=N/O)cc1 [Comp. 330]
- Inhibition rate (1 μM) [1, 4]: 118.8
- IC50 [1, 5]: 2.4 nM
- melting point: 122 to 124 °C

Compound: O/N=C/Nc1ccc(OCc2ccccn2)cc1 [Comp. 345, N-[4-(pyridin-2-ylmethoxy)phenyl]-N′-hydroxyformamidine]
- Inhibition rate (1 μM) [1, 4]: 107
- IC50 [1, 5]: 37.5 nM
- melting point: 159.5 to 161 °C

Compound: CC(C)OCCOc1ccc(N/C=N/O)cc1 [Comp. 354]
- Inhibition rate (1 μM) [1, 4]: 106
- IC50 [1, 5]: 3 nM
- melting point: 113 to 114 °C

Compound: Cc1ncsc1CCOc1ccc(N/C=N/O)cc1 [Comp. 353]
- Inhibition rate (1 μM) [1, 4]: 105
- IC50 [1, 5]: 3.7 nM
- melting point: 158 to 160 °C

Compound: O/N=C/Nc1ccc(C(F)(F)F)cc1 [Comp. 27]
- Inhibition rate (1 μM) [1, 2]: 103.3
- IC50 [1, 3]: 1.7 nM
- melting point: 140.5 to 142 °C

Compound: O=[N+]([O-])c1cc(F)ccc1N/C=N/O [Comp. 126]
- Inhibition rate (1 μM) [1, 2]: 34.9
- melting point: 172.5 to 173 °C (dec.)

Compound: O/N=C/Nc1cccc(C(F)(F)F)c1 [Comp. 46]
- Inhibition rate (1 μM) [1, 2]: 48.5
- IC50 [1, 3]: 355 nM
- melting point: 100.5 to 102 °C

Compound: O/N=C/Nc1ccc(OCC2CCO2)cc1 (stereo not drawn) [Comp. 409]
- Inhibition rate (1 μM) ([1]; 1 μM of the subject compound): 113.2
- IC50 [1, 6]: 6.7 nM
- melting point: 145 to 146 °C

Compound: COCCOc1ccc(N/C=N/O)cc1 [Comp. 346]
- Inhibition rate (1 μM) [1, 4]: 106.2
- IC50 [1, 5]: 8.9 nM
- melting point: 104 to 107 °C

Compound: COc1cccc(C)c1N/C=N/O [Comp. 52]
- melting point: 145 to 146 °C

Compound: CCCOc1ccc(N/C=N/O)cc1 [Comp. 317]
- melting point: 132 to 133 °C

Compound: O/N=C/Nc1ccc(N2CCOCC2)c(Cl)c1 [Comp. 302]
- melting point: 177.5 to 178 °C

Compound: COc1cc(N/C=N/O)cc(OC)c1OC [Comp. 103]
- melting point: 143 to 146 °C

Compound: CCOC(=O)c1cccc(N/C=N/O)c1 [Comp. 127]
- melting point: 137.5 to 138.5 °C

Compound: CC(C)(C)c1ccc(N/C=N/O)cc1 [Comp. 2, N-(4-tert-butylphenyl)-N′-hydroxy-formamidine]
- melting point: 113.5 to 114.5 °C

Compound: CCc1cc(Br)cc(CC)c1N/C=N/O [Comp. 53]
- melting point: 159 to 160 °C

Compound: Cc1ccc(N/C=N/O)cc1 [Comp. 10]
- melting point: 143.5 to 144.5 °C

Compound: NS(=O)(=O)c1ccccc1N/C=N/O [Comp. 236, N-(2-aminosulfonylphenyl)-N′-hydroxyformamidine]
- melting point: 130.5 to 131.5 °C

Compound: COC(=O)c1ccc(N/C=N/O)cc1 [Comp. 37]
- melting point: 167 to 167.5 °C

Compound: CCCc1cc(Br)c(N/C=N/O)c(Br)c1 [Comp. 48]
- melting point: 155 to 156 °C

Compound: COC(=O)c1cc(N/C=N/O)cc(C(=O)OC)c1 [Comp. 129]
- melting point: 183 to 183.5 °C

Compound: O/N=C/Nc1ccc2c(c1)OCO2 [Comp. 230]
- melting point: 165 to 165.5 °C

Compound: O/N=C/Nc1ccc(Br)cc1Cl [Comp. 35]
- Inhibition rate (1 μM) [1, 2]: 95.4
- IC50 [1, 3]: 86.5 nM

Compound: CCOC(=O)CSc1ccc(N/C=N/O)cc1 [Comp. 440]
- Inhibition rate (1 μM) ([1]; 1 μM of the subject compound): 102.8

Compound: O/N=C/Nc1ccc(SCCc2ccccc2)cc1 [Comp. 458]
- Inhibition rate (1 μM) ([1]; 1 μM of the subject compound): 116.0

Compound: O/N=C/Nc1ccc(SC2CCCCC2)cc1 [Comp. 438]
- Inhibition rate (1 μM) ([1]; 1 μM of the subject compound): 87.9

Compound: CCCCCCSc1ccc(N/C=N/O)cc1 [Comp. 451]
- Inhibition rate (1 μM) ([1]; 1 μM of the subject compound): 97.6

Compound: N#CC(c1ccccc1)c1ccc(N/C=N/O)cc1 (stereo not drawn) [Comp. 283]
- Inhibition rate (1 μM) [1, 4]: 62.6

Compound: CCc1ccc(N/C=N/O)cc1 [Comp. 16]
- melting point: 141 to 142 °C

Compound: COc1ccc(N/C=N/O)c(OC)c1 [Comp. 198]
- Inhibition rate (1 μM) [1, 4]: 81.8

Compound: O/N=C/Nc1ccc(Cc2ccccc2)cc1 [Comp. 233]
- melting point: 118 to 119.5 °C

Compound: COc1ccc(/C=C/c2ccc(N/C=N/O)cc2)cc1 [Comp. 228]
- Inhibition rate (1 μM) [1, 4]: 72.0

Compound: O/N=C/Nc1ccc(OCCc2cccc(Br)c2)cc1 [Comp. 376]
- Inhibition rate (1 μM) [1, 4]: 114.9

Compound: Cc1ccc(CCOc2ccc(N/C=N/O)cc2)cc1 [Comp. 372]
- Inhibition rate (1 μM) [1, 4]: 100.5

Compound: COc1ccccc1N/C=N/O [Comp. 59]
- Inhibition rate (1 μM) [1, 2]: 49.0

Compound: CC(C)CCOc1ccc(N/C=N/O)cc1 [Comp. 328]
- Inhibition rate (1 μM) [1, 4]: 121.4

Compound: CC(C)CCSc1ccc(N/C=N/O)cc1 [Comp. 443]
- Inhibition rate (1 μM) ([1]; 1 μM of the subject compound): 103.0

Compound: O/N=C/Nc1cccc(Cl)c1Cl [Comp. 81]
- Inhibition rate (1 μM) [1, 2]: 51.3

Compound: CCN(CCOc1ccc(N/C=N/O)cc1)c1cccc(C)c1 [Comp. 405]
- Inhibition rate (1 μM) ([1]; 1 μM of the subject compound): 116.0

Compound: COC(=O)CSc1ccc(N/C=N/O)cc1 [Comp. 446]
- Inhibition rate (1 μM) ([1]; 1 μM of the subject compound): 95.9

Compound: CCN(CC)CCOCCOc1ccc(N/C=N/O)cc1 [Comp. 398]
- Inhibition rate (1 μM) ([1]; 1 μM of the subject compound): 95.2
- IC50 [1, 6]: 2.4 nM

Compound: O/N=C/Nc1ccc(OCCN2CCCCC2)cc1 [Comp. 357]
- Inhibition rate (1 μM) [1, 4]: 98

Compound: Cc1cc(C(C#N)c2ccc(Cl)cc2)c(Cl)cc1N/C=N/O (stereo not drawn) [Comp. 279]
- Inhibition rate (1 μM) [1, 4]: 42.8

Compound: COC(=O)c1cc(I)ccc1N/C=N/O [Comp. 201]
- Inhibition rate (1 μM) [1, 4]: 70.1

Compound: COc1ccc(C(F)(F)F)cc1N/C=N/O [Comp. 90]
- Inhibition rate (1 μM) [1, 2]: 36.5

Compound: CCc1cccc(C(C)C)c1N/C=N/O [Comp. 163]
- Inhibition rate (1 μM) [1, 2]: 40.0

Compound: CCOC(=O)c1ccc(N/C=N/O)cc1 [Comp. 183]
- Inhibition rate (1 μM) [1, 2]: 92.0

Compound: COc1cccc(N/C=N/O)c1OC [Comp. 99]
- Inhibition rate (1 μM) [1, 2]: 40.8

Compound: Cc1ccc(N/C=N/O)cc1Cl [Comp. 86]
- Inhibition rate (1 μM) [1, 2]: 58.7

Compound: CCCCc1ccc(C)c(N/C=N/O)c1 [Comp. 133]
- melting point: 116.5 to 117.5 °C

Compound: Cc1ccc(N/C=N/O)c(F)c1 [Comp. 165]
- Inhibition rate (1 μM) [1, 2]: 105.7

Compound: O/N=C/Nc1ccccc1F [Comp. 79]
- Inhibition rate (1 μM) [1, 2]: 35.3

Compound: O/N=C/Nc1ccc(OC(F)F)cc1 [Comp. 151]
- Inhibition rate (1 μM) [1, 2]: 108.2

Compound: O/N=C/Nc1ccc(OCc2ccc(-c3ccccc3)cc2)cc1 [Comp. 397]
- Inhibition rate (1 μM) [1, 4]: 99.3

Compound: CC(=O)N(C)c1ccc(N/C=N/O)cc1 [Comp. 301]
- Inhibition rate (1 μM) [1, 4]: 62.1

Compound: CCCCCCc1ccc(N/C=N/O)cc1 [Comp. 9]
- melting point: 108 to 110 °C

Compound: CC(C)c1ccc(N/C=N/O)cc1 [Comp. 30]
- melting point: 143 to 143.5 °C

Compound: O/N=C/Nc1ccccc1 [Comp. 135]
- Inhibition rate (1 μM) [1, 2]: 49.3

Compound: CC(C)COC(=O)c1ccc(N/C=N/O)cc1 [Comp. 189]
- Inhibition rate (1 μM) [1, 2]: 116.8

Compound: O/N=C/Nc1ccc(SC(F)(F)F)cc1 [Comp. 224]
- Inhibition rate (1 μM) [1, 4]: 47.1

Compound: O/N=C/Nc1ccc(OCc2ccccc2CCc2ccccc2)cc1 [Comp. 386]
- Inhibition rate (1 μM) [1, 4]: 105.2

Compound: CCCCCCCCCCc1ccc(N/C=N/O)cc1 [Comp. 157]
- Inhibition rate (1 μM) [1, 2]: 121.4

Compound: CC(C)CCCOc1ccc(N/C=N/O)cc1 [Comp. 327]
- Inhibition rate (1 μM) [1, 4]: 110.1

Compound: O/N=C/Nc1ccc(F)cc1Cl [Comp. 69]
- Inhibition rate (1 μM) [1, 2]: 58.7

Compound: CCCCCCCCc1ccc(N/C=N/O)cc1 [Comp. 70]
- Inhibition rate (1 μM) [1, 2]: 32.9
